Results: patent US20180050093A1, “LEPTIN ACTIVE PEPTIDE HAVING D HELIX REGION MUTATIONS, CODING GENE THEREOF, AND APPLICATION THEREOF” (SUN YAT-SEN UNIVERSITY, priority 2015, published 2018)

System: 3T3-L1 preadipocytes
Test: In-vitro lipid-lowering (adipocyte-degrading) activity analysis, MTT detection
Type: cell-based
Conditions: for adipocyte lysis activity vs. negative control (Control, PBS): FIG. 2 mark a
Procedure: Preadipocytes: induced preadipocytes stage; D0-D2: 0-2nd day of induced differentiation (an early stage of differentiation); D9: the 9th day of induced differentiation (a mature adipocyte stage).
1.2 In-Vitro Lipid-Lowering Activity Analysis of the Leptin Active Peptide
Lipid degradation activity of the synthesized leptin active peptide having helix D region mutation is analyzed on a cellular level by taking a 3T3-L1 preadipocyte line as a model. Specific operations are as follows:
b: an early differentiation stage D0-D2 (0-2nd day of induced differentiation); and
c: a mature adipocyte stage D9 (the 9th day of induced differentiation);
a. leptin active peptide having helix D region mutation (PEP-D): diluted to […] with purified water and preserved at −20° C. for later use. After an experiment is started, working concentrations have 3 concentration gradients, that is, 10^−6M, 10^−9M and 10^−11M;
b. positive control. I: H-LEP, recombinant human-derived leptin protein (10221-HNAE, Beijing Sino Biological Inc.), diluted to 10^−6M with purified water and preserved at −20° C. for later use. After an experiment is started, the working concentration is 10^−9M;
c. positive control 2: Ros (rosiglitazone,R2408,Sigma), diluted to a stock solution with a concentration of 2518 μM with DMSO and preserved at −20° C. for later use. After an experiment is started, the stock solution is diluted to a working solution of 0.5 μM with cell culture fluid;
d. negative control (Control): equivalent quantity of PBS
(1) Inoculating 3T3-L1 preadipocytes in corning cell bind 96-well plates (totally inoculated with 3 plates, respectively plate a, plate b and plate c), wherein the inoculation density is 4500 cells/well; and marking, and standing and culturing at 37° C. in a 5% CO2 incubator. Each sample of each plate is operated repeatedly for 3 times, and the whole experiment is repeated for 3 times;
(2) Continuously culturing for 48 hours after the cells are merged to 100% (enabling the cells to exit from a growth cycle, and starting induced differentiation); and
i, taking out the plate a; respectively adding different amounts of leptin active peptide having helix D region mutation (PEP-D) to enable the working concentrations to be respectively 3 concentration gradients, that is, 10^−6M, 10^−9M and 10^−11M; setting 2 positive controls, a negative control (PBS) and a blank control (3 repeated holes are set for each sample), and continuously standing and culturing at 37° C. in the 5% CO2 incubator.
ii, when culturing to 45 hours (that is, 3 hours before the end of drug treatment), taking out the plate a, and measuring MTT (preadipocytes). Specific operations: adding 20 μL of 5 mg/mL of MTT solution into each well, continuously standing and culturing at 37° C. in the 5% CO2 incubator for 3 hours, sucking and discarding the culture solution in the wells, adding 150 μL of DMSO into each well, horizontally shaking for 10 min, detecting a light absorption value at 492 nm by a microplate reader, and drawing a growth curve;
i, taking out the plate b; adding the differentiation induced liquid I (D0); respectively adding the leptin active peptide having helix D region mutation (PEP-D); setting 2 positive controls, a negative control (PBS) and a blank control (3 repeated holes are set for each sample), and continuously standing and culturing at 37° C. in the 5% CO2 incubator.
ii, when culturing to 45 hours (that is, 3 hours before the end of drug treatment), taking out the plate b, and measuring MTT (at the early differentiation stage, D0-D2). Specific operations: adding 20 μL, of 5 mg/mL of MTT solution into each well; continuously standing and culturing at 37° C. in the 5% CO2 incubator for 3 hours; sucking and discarding the culture solution in the wells; adding 150 μL of DMSO into each well; horizontally shaking for 10 min; detecting a light absorption value at 492 nm by the microplate reader; and drawing a growth curve; […]

[1] = P<0.05, H-LEP 10^−9M, Ros 0.5 μM

| Compound | adipocyte lysis activity vs. negative control (Control, PBS) [1] | adipocyte lysis activity vs. H-LEP (FIG. 2 mark b, P<0.05) | adipocyte lysis activity vs. Ros (FIG. 2 mark c, P<0.05) | adipocyte-degrading activity compared with the positive controls H-LEP and Ros (MTT, three cell differentiation stages (preadipocytes, early differentiation D0-D2, mature adipocyte D9), PEP-D 10^−6M, 10^−9M, 10^−11M, H-LEP 10^−9M, Ros 0.5 μM) | concentration dependence of lipid-lowering activity (MTT, working concentrations 10^−6M, 10^−9M and 10^−11M) | cell lysis effects at cell stages (preadipocytes stage, differentiation stage (D0-D2), mature adipocyte stage (D9)) |
| --- | --- | --- | --- | --- | --- | --- |
| CN(CCOc1ccc(CC2SC(=O)NC2=O)cc1)c1ccccn1 (stereo not shown) [Ros, rosiglitazone, reference compound] | obviously better than that of the negative control | – | – | – | – | – |
| H-LEP: recombinant human-derived leptin protein (10221-HNAE, Beijing Sino Biological Inc.), positive control | obviously better than that of the negative control | – | – | – | – | – |
| STEVVALDGLQGSLQTMLLQLEYS (An amino acid sequence of the leptin active peptide having helix D region mutation) [PEP-D] | – | obviously better than that of the H-LEP | obviously better than that of the Ros | obviously better than that of positive control-human-derived leptin protein (H-LEP) and a commercially available drug rosiglitazone (Ros) | obvious concentration dependence | obvious cell lysis effects at three stages |
